{"source": "paper PMC6795057", "about": "“Plumbagin Prevents Secretory Diarrhea by Inhibiting CaCC and CFTR Channel Activities” (Frontiers in Pharmacology, 2019)", "key": {"[1]": {"molecular_target": "T1, TMEM16A (transmembrane protein 16A) (Homo sapiens, UniProt Q5XXA6)", "T1 construct": "gene ANO1", "T1 sequence (Q5XXA6 1-986)": "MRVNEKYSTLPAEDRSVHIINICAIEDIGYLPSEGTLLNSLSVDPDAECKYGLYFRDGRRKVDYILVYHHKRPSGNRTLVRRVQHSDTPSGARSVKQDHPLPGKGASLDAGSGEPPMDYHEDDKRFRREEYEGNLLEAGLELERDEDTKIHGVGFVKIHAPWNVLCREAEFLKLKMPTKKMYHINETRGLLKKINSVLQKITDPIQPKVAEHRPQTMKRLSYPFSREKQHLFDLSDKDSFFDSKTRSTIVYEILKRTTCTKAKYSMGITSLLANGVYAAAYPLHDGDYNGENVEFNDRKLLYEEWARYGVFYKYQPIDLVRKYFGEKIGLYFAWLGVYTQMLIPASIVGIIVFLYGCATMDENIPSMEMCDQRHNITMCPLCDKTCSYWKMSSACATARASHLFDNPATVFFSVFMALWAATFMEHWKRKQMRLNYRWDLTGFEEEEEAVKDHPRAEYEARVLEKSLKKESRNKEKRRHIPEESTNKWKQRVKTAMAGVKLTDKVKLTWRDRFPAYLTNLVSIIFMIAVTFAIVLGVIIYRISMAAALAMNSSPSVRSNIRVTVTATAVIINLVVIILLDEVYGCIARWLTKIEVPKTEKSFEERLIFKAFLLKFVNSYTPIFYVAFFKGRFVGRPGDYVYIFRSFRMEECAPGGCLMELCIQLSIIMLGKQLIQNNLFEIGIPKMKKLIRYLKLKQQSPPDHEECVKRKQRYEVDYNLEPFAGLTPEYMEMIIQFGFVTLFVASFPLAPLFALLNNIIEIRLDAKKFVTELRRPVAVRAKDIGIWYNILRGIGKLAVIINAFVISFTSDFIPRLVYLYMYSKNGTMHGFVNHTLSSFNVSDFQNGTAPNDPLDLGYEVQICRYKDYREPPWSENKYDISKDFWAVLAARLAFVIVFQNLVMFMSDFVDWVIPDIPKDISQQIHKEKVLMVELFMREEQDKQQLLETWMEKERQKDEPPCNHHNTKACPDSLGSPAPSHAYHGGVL", "assay": "YFP iodide-influx fluorescence quenching in TMEM16A-expressing FRT cells; Eact-stimulated short-circuit current", "assay_type": "cell-based"}, "[2]": {"molecular_target": "CFTR (cystic fibrosis transmembrane conductance regulator) (Homo sapiens, UniProt P13569)", "sequence (P13569 whole entry)": "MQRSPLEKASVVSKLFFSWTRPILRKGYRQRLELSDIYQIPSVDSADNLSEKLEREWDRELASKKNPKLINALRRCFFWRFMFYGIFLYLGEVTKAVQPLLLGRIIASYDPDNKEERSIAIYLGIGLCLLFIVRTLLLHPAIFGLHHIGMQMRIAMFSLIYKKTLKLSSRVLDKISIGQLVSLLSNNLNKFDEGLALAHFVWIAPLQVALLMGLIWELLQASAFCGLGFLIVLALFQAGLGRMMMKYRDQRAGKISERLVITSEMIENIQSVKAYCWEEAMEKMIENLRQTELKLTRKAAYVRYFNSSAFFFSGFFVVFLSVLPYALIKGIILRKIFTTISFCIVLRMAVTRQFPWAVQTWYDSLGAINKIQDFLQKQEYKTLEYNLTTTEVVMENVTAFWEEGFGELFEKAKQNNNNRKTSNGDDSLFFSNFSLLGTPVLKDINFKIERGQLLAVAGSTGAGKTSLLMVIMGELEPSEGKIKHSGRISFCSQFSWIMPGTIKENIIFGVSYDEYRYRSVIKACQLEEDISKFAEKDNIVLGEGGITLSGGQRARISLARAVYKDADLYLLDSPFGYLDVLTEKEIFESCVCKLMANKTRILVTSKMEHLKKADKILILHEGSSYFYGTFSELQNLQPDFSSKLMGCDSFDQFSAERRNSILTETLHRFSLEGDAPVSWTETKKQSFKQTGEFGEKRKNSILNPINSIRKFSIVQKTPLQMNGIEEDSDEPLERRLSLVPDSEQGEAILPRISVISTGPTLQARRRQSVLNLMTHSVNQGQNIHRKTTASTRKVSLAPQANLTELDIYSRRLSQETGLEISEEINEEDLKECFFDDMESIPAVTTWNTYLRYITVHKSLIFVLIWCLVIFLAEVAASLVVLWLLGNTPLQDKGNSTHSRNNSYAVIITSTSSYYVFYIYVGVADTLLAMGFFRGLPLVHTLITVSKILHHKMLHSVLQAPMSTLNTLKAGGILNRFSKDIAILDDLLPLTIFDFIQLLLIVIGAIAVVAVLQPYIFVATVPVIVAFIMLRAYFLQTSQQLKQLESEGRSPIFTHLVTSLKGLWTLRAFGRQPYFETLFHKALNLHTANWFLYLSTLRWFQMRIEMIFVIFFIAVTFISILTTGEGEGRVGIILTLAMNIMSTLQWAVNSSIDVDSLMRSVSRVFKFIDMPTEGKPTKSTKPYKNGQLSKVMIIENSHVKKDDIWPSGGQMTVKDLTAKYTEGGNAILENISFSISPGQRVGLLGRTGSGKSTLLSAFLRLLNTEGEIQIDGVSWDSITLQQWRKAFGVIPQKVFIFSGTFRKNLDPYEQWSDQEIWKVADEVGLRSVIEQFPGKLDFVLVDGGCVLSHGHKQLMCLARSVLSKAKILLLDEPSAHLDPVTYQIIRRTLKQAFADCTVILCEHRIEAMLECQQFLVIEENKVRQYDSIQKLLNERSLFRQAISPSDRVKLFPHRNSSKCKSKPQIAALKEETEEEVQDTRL", "assay": "short-circuit current in HT-29 cells, FSK-stimulated; also inhibits current with genistein (direct activator, IC50 […])", "assay_type": "cell-based"}}}
{"molecule": "CC1=CC(=O)c2c(O)cccc2C1=O", "note": "[plumbagin]", "values": [{"measurement": "IC50", "setting": "[1]", "result": "~12.5", "unit": "µM"}, {"measurement": "IC50", "setting": "[2]", "result": 3.9, "unit": "µM"}]}
